# How the values were obtained:
# HT1080 cells = experiment: Cellular assay for IDH1m R132C inhibitors, 2-HG by LC-MS in HT1080 cells; type: cell-based; details: Homo sapiens, HT-1080
# Outline: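 2-HG levels were measured by LC-MS in culture medium sampled 48 h after compound addition (0.2% DMSO) to HT1080 cells seeded overnight at 5000 cells/well. A CellTiter-Glo luminescence read at 72 h gave cell viability.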
# IDH2 R140Q = IDH2 R140Q (Homo sapiens (Human), UniProt P48735, R140Q); experiment: In vitro assay for IDH2m R140Q inhibitors, cofactor depletion assay, 16 hr preincubation with NADPH/NADP; type: biochemical; details: read-out: IDH2 R140Q 16 hr NADPH/NADP IC50; 16 hrs preincubation with enzyme, 5 uM NADPH and 750 uM NADP
# Sequence of IDH2 R140Q (P48735 40-452 R140Q): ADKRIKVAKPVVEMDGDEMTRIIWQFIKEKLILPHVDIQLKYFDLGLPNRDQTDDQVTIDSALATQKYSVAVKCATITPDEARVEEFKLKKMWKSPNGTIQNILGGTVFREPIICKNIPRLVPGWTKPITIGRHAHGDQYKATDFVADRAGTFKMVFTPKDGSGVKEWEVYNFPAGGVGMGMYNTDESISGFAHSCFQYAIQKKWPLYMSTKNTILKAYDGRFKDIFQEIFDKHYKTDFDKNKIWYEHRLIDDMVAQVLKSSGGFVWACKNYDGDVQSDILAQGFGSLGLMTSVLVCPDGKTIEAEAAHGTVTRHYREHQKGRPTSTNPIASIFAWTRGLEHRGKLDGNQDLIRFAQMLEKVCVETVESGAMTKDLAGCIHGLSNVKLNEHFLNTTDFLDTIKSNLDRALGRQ
# Excerpt: The following describes the experimental procedures used to obtain data on column 6 of Table 5.
# The reaction is terminated by the addition of a second enzyme, diaphorase, and a corresponding substrate, resazurin. Diaphorase reduces resazurin to the highly fluorescent resorufin with the concomitant oxidation of NADPH to NADP, both halting the IDH2 reaction by depleting the available cofactor pool and facilitating quantitation of the amount of cofactor remaining after a specific time period through quantitative production of an easily detected fluorophore.
# The test compound is then incubated for 16 hrs at room temperature with the enzyme and cofactors before starting the IDH2 reaction with the addition of 10 μl of substrate mix containing 8 mM α-KG (final concentration 1.6 mM) in the buffer described above. After a further 1 hour of incubation at room temperature, the reaction is halted and the remaining NADPH measured through conversion of resazurin to resorufin by the addition of 25 μl Stop Mix (36 μg/ml diaphorase enzyme and 60 μM resazurin; in buffer).
# [1] = molecular target: IDH1-R132H homodimer enzyme (Homo sapiens (Human), UniProt O75874, R132H); experiment: In vitro assay IDH1-R132H homodimer, NADPH depletion assay with NADPH/NADP preincubation; type: biochemical; details: 5 μM NADPH and 37.5 μM NADP
# Sequence of IDH1-R132H homodimer enzyme (O75874 whole entry R132H): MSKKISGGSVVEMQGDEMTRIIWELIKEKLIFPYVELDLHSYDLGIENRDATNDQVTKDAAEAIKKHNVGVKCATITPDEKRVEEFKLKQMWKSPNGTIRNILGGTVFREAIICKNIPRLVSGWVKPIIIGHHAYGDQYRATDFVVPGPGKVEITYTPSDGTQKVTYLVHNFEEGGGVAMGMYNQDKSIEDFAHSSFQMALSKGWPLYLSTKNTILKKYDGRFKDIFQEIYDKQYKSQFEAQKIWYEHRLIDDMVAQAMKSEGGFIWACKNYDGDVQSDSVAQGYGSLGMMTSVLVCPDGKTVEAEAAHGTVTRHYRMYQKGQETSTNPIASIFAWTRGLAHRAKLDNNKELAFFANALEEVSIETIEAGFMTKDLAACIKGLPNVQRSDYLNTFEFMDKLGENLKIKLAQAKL
# Outline: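 Compounds were added from DMSO at 50× final concentration, and the mutant enzyme was incubated 60 min at room temperature after starting with a substrate mix holding NADPH and 5 mM alpha-ketoglutarate. Residual cofactor, read by fluorescence after excess diaphorase and resazurin, reflects enzyme turnover.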
# [2] = molecular target: IDH1 wt/IDH1 R132C heterodimer (Homo sapiens (Human), UniProt O75874, R132C); experiment: In vitro assay for IDH1m R132C inhibitors, IDH1 wt/IDH1 R132C heterodimer, NADPH depletion (diaphorase/resazurin); type: biochemical; details: NADPH/NADP
# Sequence of IDH1 wt/IDH1 R132C heterodimer (O75874 whole entry R132C): as the sequence (O75874 whole entry R132H) above, with H132C counted along it
# Sequence of IDH1 wt/IDH1 R132C heterodimer (O75874 whole entry, stated change not applied): as the sequence (O75874 whole entry R132H) above, with H132R counted along it
# Outline: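 Remaining NADPH was measured by diaphorase/resazurin conversion (5 min, 25 °C) as resorufin fluorescence, Ex 544/Em 590. DMSO was diluted 1:50 into the reaction, and IC50s were derived.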
IC50 (HT1080 cells) [nM],IC50 (IDH2 R140Q) [nM],IC50 [1] [nM],IC50 [2] [nM],Compound
< 50,< 50,< 50,< 50,FC1(F)CCC(Nc2nc(NC3CCC(F)(F)C3)nc(-c3cccc(Cl)n3)n2)C1 (stereo not drawn) [Compound 113]
100 to 1000,,100 to 1000,< 50,FC1(F)CCC(Nc2nc(NC3CC4(C3)CC(F)(F)C4)nc(-c3cccc(C(F)(F)F)n3)n2)C1 (stereo not drawn) [Compound 191]
100 to 1000,,100 to 1000,< 50,FC1(F)CCC(Nc2nc(Nc3ccnc(C(F)(F)F)c3)nc(-c3cccc(C(F)(F)F)n3)n2)CC1 [Compound 192]
100 to 1000,,100 to 1000,50 to 100,N#CC1(c2cc(Nc3nc(NC4CC5(C4)CC(F)(F)C5)nc(-c4cccc(C(F)(F)F)n4)n3)ccn2)CC1 [Compound 229]
100 to 1000,,100 to 1000,< 50,FC1(F)CCC(Nc2nc(NC3CCC(F)(F)C3)nc(-c3nccc(C(F)(F)F)n3)n2)C1 (stereo not drawn) [Compound 237]
,< 50,,100 to 1000,CC(C)(C)Nc1nc(Nc2cc(F)cc(C#N)c2)nc(-c2nccc(C(F)(F)F)n2)n1 [Compound 245]
,50 to 100,100 to 1000,100 to 1000,CC(CC#N)Nc1nc(Nc2ccnc(C(C)(F)F)c2)nc(-c2cccc(C(F)(F)F)n2)n1 (stereo not drawn) [Compound 250]
100 to 1000,100 to 1000,100 to 1000,100 to 1000,FC1(F)CCC(Nc2nc(NC3CCOCC3)nc(-c3cccc(C(F)(F)F)n3)n2)CC1 [Compound 255]
100 to 1000,100 to 1000,100 to 1000,100 to 1000,O=C(c1ccccc1)N1CCC(Nc2nc(NC3CCC(F)(F)C3)nc(-c3cccc(C(F)(F)F)n3)n2)C1 (stereo not drawn) [Compound 263]
> 1000,100 to 1000,> 1000,100 to 1000,CS(=O)(=O)N1CCC(Nc2nc(NC3CCC(F)(F)CC3)nc(-c3cccc(C(F)(F)F)n3)n2)CC1 [Compound 266]
100 to 1000,,> 1000,100 to 1000,Fc1ccc([C@H]2C[C@@H](Nc3nc(N[C@H]4C[C@@H](c5ccc(F)cc5)C4)nc(-c4cccc(C(F)(F)F)n4)n3)C2)cc1 [Compound 272]

# More lines, now with the values behind:
Compound,IC50 (HT1080 cells) [nM],IC50 (IDH2 R140Q) [nM],IC50 [1] [nM],IC50 [2] [nM]
CCC(Nc1nc(NC(CC)C2CC2)nc(-c2cccc(Cl)n2)n1)C1CC1 (stereo not drawn) [Compound 110],50 to 100,< 50,50 to 100,< 50
CC(C)(C)Nc1nc(Nc2cccc(C#N)c2)nc(-c2cccc(C(F)(F)F)n2)n1 [Compound 117],> 1000,< 50,,< 50
N#CC1(c2cc(Nc3nc(NC4CCC(F)(F)C4)nc(-c4cccc(Cl)n4)n3)ccn2)CC1 (stereo not drawn) [Compound 127],50 to 100,< 50,< 50,< 50
C[C@@H](Nc1nc(Nc2ccnc(C3(C#N)CC3)c2)nc(-c2cccc(Cl)n2)n1)C1CC1 [Compound 167],,< 50,< 50,< 50
FC1(F)CCC(Nc2nc(Nc3ccnc(C(F)(F)F)c3)nc(-c3cccc(C(F)(F)F)n3)n2)C1 (stereo not drawn) [Compound 178],,< 50,50 to 100,< 50
C[C@@H](Nc1nc(NC(C2CC2)C2CC2)nc(-c2cccc(C(F)(F)F)n2)n1)C1CC1 [Compound 193],,< 50,50 to 100,< 50
CC(Nc1nc(N[C@H](C)C2CC2)nc(-c2cccc(C(F)(F)F)n2)n1)C(F)(F)F (stereo partly drawn) [Compound 203],< 50,< 50,< 50,< 50
FC(F)c1cccc(-c2nc(NC3CCC(F)(F)CC3)nc(NC3CCC(F)(F)CC3)n2)n1 [Compound 224],100 to 1000,,100 to 1000,< 50
CC(C)(CC#N)Nc1nc(Nc2ccnc(C(C)(F)F)c2)nc(-c2cccc(C(F)(F)F)n2)n1 [Compound 231],> 1000,,100 to 1000,50 to 100
CC(C)(O)CNc1nc(Nc2cc(F)cc(C#N)c2)nc(-c2cccc(C(F)(F)F)n2)n1 [Compound 244],> 1000,50 to 100,,100 to 1000
C[C@@H](Nc1nc(N[C@H](C)C2CC2)nc(-c2nccc(C(F)(F)F)n2)n1)C1CC1 [Compound 268],100 to 1000,50 to 100,> 1000,< 50
CC(=O)N1CCC(Nc2nc(NC3CCC(F)(F)CC3)nc(-c3cccc(C(F)(F)F)n3)n2)CC1 [Compound 273],> 1000,> 1000,> 1000,100 to 1000
FC1(F)CCC(Nc2nc(NC3CCN(Cc4ccccc4)C3)nc(-c3cccc(C(F)(F)F)n3)n2)C1 (stereo not drawn) [Compound 280],> 1000,100 to 1000,> 1000,≥ 1000

# — patent US10028961B2, “Therapeutically active compounds and their methods of use” (AGIOS PHARMACEUTICALS, INC., priority 2013, dated 2018)
